# How the values were obtained:
# [1] = Chemical stability of PsA in mice plasma (HPLC); format: in vitro ADME; conditions: for Stability 24 h Room Temperature, Accuracy (%) / Stability −20 °C for 2 Weeks, Accuracy (%) / Stability Freeze-Thaw Cycles, Accuracy (%): mice plasma, n = 3; for Stability Freeze-Thaw Cycles, Accuracy (%): three cycles
# Method: Chromatographic analysis was conducted on a Shimadzu HPLC system (Shimadzu USA Manufacturing Inc., Canby, OR, USA) equipped with an SPD-20A UV detector, 20 µL manual sampler, LC-20AD pump, a degasser, and an automated temperature-controlled column compartment. The UV detector, column oven, and LC-20AD pump were coupled to the Shimadzu system and controlled through Lab Solutions software, v5.111. Stationary phase separation was carried out using a Shimadzu Shim-Pack GWS C18 column (4.6 × 250 mm, 5 µm) equipped with a Zorbax ODS guard column (4.6 × 12.5 mm, 5 µm) by gradient elution with the column temperature maintained at 35 °C. The UV detector wavelength was set and measured at 254 nm. A constant flow rate of 1.0 mL/min and manual injection of 20 µL were employed throughout the HPLC analysis. A mobile phase consisting of aqueous HCOOH (0.1%, v/v, mobile system A) and HPLC grade CH3CN (mobile system B) utilized with a gradient elution of 30–60% B at 0–5 min, 60–85% B at 5–8 min, 85–95% B at 8–11.5 min, and 95% B at 11.5–18 min. The post-run re-equilibration time was 5 min.
# Five µL of the IS ([…]) and 20 µL of 50, 40, 30, 20, 10, 8, and 4 µg/mL PsA standard solutions were combined with 15 µL freshly extracted blank mouse plasma. 300 µL of a 70% EtOAc/30% isopropanol mixture was added and vortexed for 30 s. Following centrifugation at 15,000× g for 10 min, the supernatant was transferred to a 2 mL Eppendorf tube for nitrogen evaporation. The residues were reconstituted in 25 µL HPLC-grade MeOH before being subjected to 30 s sonication followed by centrifugation at 15,000× g for 10 min. Afterwards, the entire sample was immediately injected for RP-HPLC analysis. The mouse plasma samples used in the PK study were subjected to the same extraction method, minus the addition of the PsA standard solutions. After weighing, each mouse organ was reconstituted in 500 µL PBS, then homogenized using the MISONIX Sonicator (Division of QSonica LLC, Newtown, CT, USA). Samples were centrifuged at 15,000× g for 10 min, and the supernatant was collected and transferred to a 2 mL Eppendorf. About 5 µL of IS (25 µL/mL) and 300 µL of a 70% EtOAc/30% isopropanol mixture were added to 100 µL of supernatant and vortexed for 30 s. Following centrifugation at 15,000× g for 10 min, the supernatant was transferred to a 2 mL Eppendorf tube and evaporated under N2. The remains were reconstituted in 40 µL HPLC-grade methanol before being subjected to 30 s sonication followed by centrifugation at 15,000× g for 10 min.
# The stability of PsA at room temperature was determined by preparing six separate mouse plasma samples for each concentration. Three samples for each concentration were immediately extracted and injected into the HPLC. The three remaining samples were left on a lab bench protected from light for 24 h before being extracted and injected into the HPLC. The concentrations measured at the 0 and 24 h time points were compared. The stability of PsA after three freeze-thaw cycles was assessed by preparing six separate mouse plasma samples for each concentration. Three samples for each concentration were immediately extracted and injected into the HPLC. The three remaining samples for each concentration were frozen and thawed in a −80 °C freezer three separate times before being extracted and injected into the HPLC. The stability of PsA at −20 °C for 2 weeks was determined by preparing six separate mouse plasma samples for each concentration. Three samples for each concentration were immediately extracted and injected into the HPLC. The three remaining samples were left in a −20 °C freezer for two weeks before being thawed, extracted, and analyzed on the HPLC.
# [2] = tested on: HFD-fed Swiss albino mice; test: Systemic cholesterol monitoring assay in HFD-fed mice, 90-day oral dosing; format: in vivo; conditions: 90 days; for reduction of HFD-induced hypercholesterolemia relative to the control: female; for plasma cholesterol relative reduction versus the control group: male
# Method: Plasmatic cholesterol concentrations in mice were determined using a total cholesterol kit (EnzyChrom^TM Cholesterol Assay Kit ECCH-100 BioAssay Systems, Hayward, CA, USA), adhering to the manufacturer’s instructions. Colorimetric quantitation was measured at 340 nm using a Synergy 2 microplate reader (BioTek Instruments Inc., Winooski, VT, USA). Blood was collected through tail vein extraction on the day before treatment, day 35, and day 90. Blood was quickly collected into green-topped Lithium Heparin 400 µL blood collection tubes (BD Microtainer REF# 365965 Becton, Dickinson and Company, Franklin Lakes, NJ, USA), centrifuged at 13,000× g for 10 min, and the upper layer of plasma was transferred to 1.5 mL Eppendorf tubes (Thermo Fisher Scientific, Waltham, MA, USA) and stored at −20 °C until analysis.
# For the 90-day daily oral dosing sub-chronic toxicity study, twenty male and twenty female healthy 8-week-old Swiss albino mice were randomly selected and randomized to […] (n = 5/sex/group). Mice received free access to purified drinking water and high-fat diet (HFD) pelleted rodent chow (11.4% total fat, no. 7004, Envigo/Teklad, Madison, WI, USA) until the day before sacrifice, at which time they were fasted for 8 h and allowed only free access to drinking water. Daily doses of PsA (10, 40, 80 mg/kg body weight) were administered to the mice formulated in <5% DMSO (Mediatech Inc., Manassas, VA, USA) and <0.2% Tween 80 (Croda Inc., Princeton, NJ, USA) at a volume not exceeding 1% of body weight by metal oral gavage (2 mm diameter with stainless steel bite protector, 18-gauge, 3.81 cm long). […] The mice were observed weekly until the completion of the study. The body weights of the mice were measured in grams using a Scout^TM Pro (Ohaus Corp., Pine Brook, NJ, USA) on day 0, 4, 8, 11, 14, 21, 28, 35, 42, 49, 56, 63, 70, 77, 83, and 90 after initial treatment. On day 90, all mice were anesthetized using isoflurane (USP-vaporizer method, Matrix VIP-3000, Covetrus, Dublin, OH, USA, exposure of animals in an anesthesia chamber at 3% isoflurane vaporization rate. Exposure time 2 min). Mice were then euthanized by cervical dislocation according to the 2020 AVMA Guidelines on Euthanasia and dissected. Mice organs (brain, liver, kidney, heart, lungs, spleen) were excised and weighed for histopathological examination. The organs were stored in 10% neutral buffered formalin (Avantor Science Central, Allentown, PA, USA) for 24 h and then transferred to 70% ethanol (AAPER ALCOHOL, Shelbyville, KY, USA). This study was performed following the OECD guideline 408 for the testing of chemicals.
# [3] = Pharmacokinetics study in Swiss albino mice; format: in vivo; conditions: following oral dosing
smiles,measurement,setting,value
"CC/C=C\[C@H](O)[C@H](O)C1=C(C)C(=O)[C@]2(O1)C(=O)N[C@@](OC)(C(=O)c1ccccc1)[C@@H]2O [PsA, pseurotin A]","Stability 24 h Room Temperature, Accuracy (%)",[1]; 4 µg/mL,35.2%
same,"Stability −20 °C for 2 Weeks, Accuracy (%)",[1]; 4 µg/mL,83.6%
same,"Stability Freeze-Thaw Cycles, Accuracy (%)",[1]; 4 µg/mL,94.0%
same,"Stability 24 h Room Temperature, Accuracy (%)",[1]; 50 µg/mL,35.5%
same,"Stability −20 °C for 2 Weeks, Accuracy (%)",[1]; 50 µg/mL,93.5%
same,"Stability Freeze-Thaw Cycles, Accuracy (%)",[1]; 50 µg/mL,108.1%
same,"Stability 24 h Room Temperature, Accuracy (%)",[1]; 250 µg/mL,48.8%
same,"Stability −20 °C for 2 Weeks, Accuracy (%)",[1]; 250 µg/mL,90.6%
same,"Stability Freeze-Thaw Cycles, Accuracy (%)",[1]; 250 µg/mL,100.6%
same,concentration loss,"[1]; mouse plasma, room temperature, 24 h",over 50%
same,reduction of HFD-induced hypercholesterolemia relative to the control,[2]; 10 mg/kg daily oral,−80.7%
same,reduction of HFD-induced hypercholesterolemia relative to the control,[2]; 40 mg/kg daily oral,−92.9%
same,reduction of HFD-induced hypercholesterolemia relative to the control,[2]; 80 mg/kg daily oral,−85.5%
same,plasma cholesterol relative reduction versus the control group,[2]; 10 mg/kg daily oral,−96.1%
same,plasma cholesterol relative reduction versus the control group,[2]; 40 mg/kg daily oral,−107.3%
same,plasma cholesterol relative reduction versus the control group,[2]; 80 mg/kg daily oral,−116.7%
same,plasma detectability by validated HPLC method,[3],not detectable in the plasma
